{
  "source": "ChEMBL document CHEMBL1201862",
  "about": "“PubChem BioAssay data set” (2004)",
  "key": {"[1]": {"target": "T1, DNA repair protein RAD52 homolog (Homo sapiens, UniProt P43351)", "T1 sequence (P43351 whole entry)": "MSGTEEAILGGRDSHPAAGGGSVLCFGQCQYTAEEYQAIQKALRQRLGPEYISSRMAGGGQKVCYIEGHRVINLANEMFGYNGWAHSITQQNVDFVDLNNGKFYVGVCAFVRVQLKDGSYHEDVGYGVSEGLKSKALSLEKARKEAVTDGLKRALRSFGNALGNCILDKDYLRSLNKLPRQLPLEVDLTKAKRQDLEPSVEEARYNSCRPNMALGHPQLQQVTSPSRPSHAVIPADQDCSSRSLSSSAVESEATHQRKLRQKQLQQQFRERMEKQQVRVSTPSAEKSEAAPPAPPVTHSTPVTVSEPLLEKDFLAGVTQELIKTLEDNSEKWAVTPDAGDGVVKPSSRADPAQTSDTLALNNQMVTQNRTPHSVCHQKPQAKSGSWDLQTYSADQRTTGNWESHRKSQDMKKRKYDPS", "assay_type": "functional, biochemical"}, "[2]": {"target": "T2, RNA-binding protein pos-1 (Caenorhabditis elegans, UniProt G5EF15)", "T2 sequence (G5EF15 whole entry)": "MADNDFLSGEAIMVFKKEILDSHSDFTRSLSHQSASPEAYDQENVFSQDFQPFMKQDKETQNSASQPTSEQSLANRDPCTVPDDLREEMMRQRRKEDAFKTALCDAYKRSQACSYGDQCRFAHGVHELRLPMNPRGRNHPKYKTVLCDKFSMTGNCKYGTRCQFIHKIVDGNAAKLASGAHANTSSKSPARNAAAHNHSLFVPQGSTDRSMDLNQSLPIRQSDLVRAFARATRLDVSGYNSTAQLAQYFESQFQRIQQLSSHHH", "test": "disruptors of C. elegans POS-1 RNA interaction – biochemical, fluorescence polarization, dose response (AID 1964);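 further: purified POS-1 fused to maltose binding protein made in E. coli; potency of compounds blocking POS-1 binding to fluorescent RNA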"}, "[3]": {"target": "T3, Zinc finger protein mex-5 (Caenorhabditis elegans, UniProt Q9XUB2)", "T3 sequence (Q9XUB2 whole entry)": "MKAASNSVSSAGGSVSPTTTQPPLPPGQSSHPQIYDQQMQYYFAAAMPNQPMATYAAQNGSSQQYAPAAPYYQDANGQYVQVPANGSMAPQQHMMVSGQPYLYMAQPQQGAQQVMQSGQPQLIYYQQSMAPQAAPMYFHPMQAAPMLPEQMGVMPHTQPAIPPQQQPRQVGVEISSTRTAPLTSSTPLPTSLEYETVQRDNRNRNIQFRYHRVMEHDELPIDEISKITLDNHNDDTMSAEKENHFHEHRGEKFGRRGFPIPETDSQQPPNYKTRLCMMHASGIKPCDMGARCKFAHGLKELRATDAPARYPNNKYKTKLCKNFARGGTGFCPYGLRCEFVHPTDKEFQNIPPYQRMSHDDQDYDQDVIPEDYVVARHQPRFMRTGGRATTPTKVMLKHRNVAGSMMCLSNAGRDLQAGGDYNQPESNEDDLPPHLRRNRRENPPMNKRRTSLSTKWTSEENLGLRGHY", "test": "potency of MEX-5 RNA-binding blockers – biochemical, C. elegans, fluorescence polarization, dose response (AID 1960)"}, "[4]": {"target": "T4, Endoribonuclease toxin MazF (Escherichia coli K-12, UniProt P0AE70)", "T4 sequence (P0AE70 whole entry)": "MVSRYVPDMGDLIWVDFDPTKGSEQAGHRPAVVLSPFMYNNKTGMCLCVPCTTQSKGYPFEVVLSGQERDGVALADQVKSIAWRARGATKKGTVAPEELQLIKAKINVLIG", "test": "activation of MazEF endoribonuclease cleavage – biochemical, fluorescence, single-stranded RNA substrate, uHTS hits, dose response (AID 588481)", "assay_type": "functional"}, "[5]": {"target": "T4, Endoribonuclease toxin MazF", "test": "substrate-only fluorescence increase artefacts – biochemical, single-stranded RNase substrate, counter-screen for MazEF activator project, dose response (AID 588502)", "assay_type": "functional"}, "[6]": {"target": "Induced myeloid leukemia cell differentiation protein Mcl-1 (Homo sapiens, UniProt Q07820)", "sequence (Q07820 whole entry)": "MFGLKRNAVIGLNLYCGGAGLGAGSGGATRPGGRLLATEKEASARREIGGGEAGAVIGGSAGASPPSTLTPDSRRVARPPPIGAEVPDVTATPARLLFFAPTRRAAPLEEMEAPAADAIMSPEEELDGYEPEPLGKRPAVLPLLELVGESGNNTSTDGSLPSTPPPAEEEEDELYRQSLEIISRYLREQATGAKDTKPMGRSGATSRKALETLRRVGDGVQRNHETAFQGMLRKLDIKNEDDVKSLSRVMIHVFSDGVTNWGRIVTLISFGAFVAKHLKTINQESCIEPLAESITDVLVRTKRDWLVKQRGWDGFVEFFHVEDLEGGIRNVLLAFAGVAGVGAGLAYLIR", "assay_type": "functional"}, "[7]": {"target": "T5, Histone-lysine N-methyltransferase NSD2 (Homo sapiens, UniProt O96028)", "T5 sequence (O96028 whole entry)": "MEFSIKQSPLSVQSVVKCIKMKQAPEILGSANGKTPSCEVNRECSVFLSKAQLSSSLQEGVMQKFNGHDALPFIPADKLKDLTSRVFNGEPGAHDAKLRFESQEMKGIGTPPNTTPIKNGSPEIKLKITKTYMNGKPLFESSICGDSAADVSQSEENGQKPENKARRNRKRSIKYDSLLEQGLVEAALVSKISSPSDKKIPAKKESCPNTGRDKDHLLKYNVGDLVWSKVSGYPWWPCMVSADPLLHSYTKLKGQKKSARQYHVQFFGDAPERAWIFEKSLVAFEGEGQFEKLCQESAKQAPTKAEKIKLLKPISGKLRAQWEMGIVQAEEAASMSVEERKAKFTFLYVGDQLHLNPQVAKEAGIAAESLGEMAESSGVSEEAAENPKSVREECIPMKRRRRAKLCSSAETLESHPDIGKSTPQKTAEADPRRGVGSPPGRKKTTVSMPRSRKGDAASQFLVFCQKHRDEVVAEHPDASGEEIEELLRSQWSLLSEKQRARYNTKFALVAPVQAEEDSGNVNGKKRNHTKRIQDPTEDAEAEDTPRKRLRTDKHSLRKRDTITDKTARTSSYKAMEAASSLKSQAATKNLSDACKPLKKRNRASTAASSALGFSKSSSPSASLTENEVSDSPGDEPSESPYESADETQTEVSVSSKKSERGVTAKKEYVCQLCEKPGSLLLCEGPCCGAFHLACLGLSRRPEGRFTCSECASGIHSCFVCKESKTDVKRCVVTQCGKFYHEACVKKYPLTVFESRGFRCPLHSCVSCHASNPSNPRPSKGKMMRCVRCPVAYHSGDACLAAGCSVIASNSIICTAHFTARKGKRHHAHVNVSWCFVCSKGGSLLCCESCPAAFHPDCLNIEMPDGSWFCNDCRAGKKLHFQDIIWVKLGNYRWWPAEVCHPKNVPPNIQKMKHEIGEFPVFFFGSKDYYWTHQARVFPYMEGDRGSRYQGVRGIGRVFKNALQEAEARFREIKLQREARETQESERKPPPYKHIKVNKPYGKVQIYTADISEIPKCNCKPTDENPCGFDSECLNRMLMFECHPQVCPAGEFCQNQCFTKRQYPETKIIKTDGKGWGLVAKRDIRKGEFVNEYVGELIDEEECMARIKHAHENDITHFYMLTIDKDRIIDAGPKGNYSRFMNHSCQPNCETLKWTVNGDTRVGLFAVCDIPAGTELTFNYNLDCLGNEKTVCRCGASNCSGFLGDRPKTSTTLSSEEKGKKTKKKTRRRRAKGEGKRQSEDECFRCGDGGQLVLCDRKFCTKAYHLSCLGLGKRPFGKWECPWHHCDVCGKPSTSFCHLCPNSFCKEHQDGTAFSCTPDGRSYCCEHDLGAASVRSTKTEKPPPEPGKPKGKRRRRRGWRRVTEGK", "assay_type": "biochemical"}, "[8]": {"target": "T6, Corticotropin-releasing factor receptor 2/Corticotropin-releasing factor-binding protein (Homo sapiens, UniProt P24387+Q13324)", "T6 sequence (Q13324 whole entry)": "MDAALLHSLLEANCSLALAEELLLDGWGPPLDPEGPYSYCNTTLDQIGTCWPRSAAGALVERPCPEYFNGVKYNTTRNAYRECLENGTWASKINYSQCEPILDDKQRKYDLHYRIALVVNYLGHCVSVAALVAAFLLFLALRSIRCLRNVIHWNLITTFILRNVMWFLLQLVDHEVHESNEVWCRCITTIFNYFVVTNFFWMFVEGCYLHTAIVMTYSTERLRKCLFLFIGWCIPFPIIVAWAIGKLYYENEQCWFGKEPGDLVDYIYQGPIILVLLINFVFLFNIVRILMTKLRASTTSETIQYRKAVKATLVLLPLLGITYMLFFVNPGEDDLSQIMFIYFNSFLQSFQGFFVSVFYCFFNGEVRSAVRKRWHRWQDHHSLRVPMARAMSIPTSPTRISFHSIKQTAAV", "T6 sequence (P24387 whole entry)": "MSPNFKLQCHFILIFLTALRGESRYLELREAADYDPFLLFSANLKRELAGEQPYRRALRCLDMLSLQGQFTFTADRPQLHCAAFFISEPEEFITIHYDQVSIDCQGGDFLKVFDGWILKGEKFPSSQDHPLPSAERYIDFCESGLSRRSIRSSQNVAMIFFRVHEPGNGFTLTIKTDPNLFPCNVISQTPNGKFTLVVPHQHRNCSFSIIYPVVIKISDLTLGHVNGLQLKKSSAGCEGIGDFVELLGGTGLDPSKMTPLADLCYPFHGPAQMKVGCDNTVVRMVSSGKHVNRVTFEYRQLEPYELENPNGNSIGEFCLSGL", "test": "Dose Response confirmation of uHTS hits for small molecule antagonists of the CRF-binding protein and CRF-R2 receptor complex.", "assay_type": "functional", "conditions": "read-out: IC50_Mean"}, "[9]": {"target": "T6, Corticotropin-releasing factor receptor 2/Corticotropin-releasing factor-binding protein", "test": "activators of CRF receptor 2 with binding protein – uHTS hits, confirmation (AID 602473)", "assay_type": "functional", "conditions": "read-out: EC50_Mean"}, "[10]": {"target": "T7, fMet-Leu-Phe receptor (Homo sapiens, UniProt P21462)", "T7 sequence (P21462 whole entry)": "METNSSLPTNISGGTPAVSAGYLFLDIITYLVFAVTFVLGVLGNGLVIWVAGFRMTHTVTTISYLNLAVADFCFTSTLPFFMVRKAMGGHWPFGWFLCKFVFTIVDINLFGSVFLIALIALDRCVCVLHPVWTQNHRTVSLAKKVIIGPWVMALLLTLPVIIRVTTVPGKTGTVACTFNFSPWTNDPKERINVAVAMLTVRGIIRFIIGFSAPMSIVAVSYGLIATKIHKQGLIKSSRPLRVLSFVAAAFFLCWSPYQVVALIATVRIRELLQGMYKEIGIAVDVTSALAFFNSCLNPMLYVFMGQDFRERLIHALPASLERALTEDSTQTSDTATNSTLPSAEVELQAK", "test": "formyl peptide receptor binders – dose response (AID 519)", "assay_type": "functional"}},
  "note": "Activity calls are given as the source filed them.",
  "data": [
    {"compound": "CSc1nc(NCCCN(C)C)c2c3c(sc2n1)CN(C)CC3", "values": [
      {"measurement": "AC50", "setting": "[1]", "value": "10.1 µM (active)"}
    ]},
    {"compound": "CC1=CC(=C2N=C(c3ccccc3)OC2=O)C=C(C)O1", "values": [
      {"measurement": "EC50", "setting": "[2]", "value": "142 µM (inconclusive)"},
      {"measurement": "EC50", "setting": "[3]", "value": "12.3 µM (inconclusive)"},
      {"measurement": "EC50", "setting": "[4]", "value": "> 99 µM (inactive)"},
      {"measurement": "EC50", "setting": "[5]", "value": "> 99 µM (inactive)"}
    ]},
    {"compound": "COCCN=C(S)Nc1ccc2nc(N3CCN(C)CC3)cc(C)c2c1", "values": [
      {"measurement": "AC50", "setting": "[1]", "value": "13.2 µM (active)"}
    ]},
    {"compound": "COC(=O)c1[nH]c2ccccc2c1/C=C1\\C(=O)NC(=O)N(c2ccc(Br)cc2)C1=O", "values": [
      {"measurement": "IC50", "setting": "[6]", "value": "9.03 µM (active)"},
      {"measurement": "AC50", "setting": "[7]", "value": "> 20 µM (inactive)"}
    ]},
    {"compound": "COc1cc(C2C(C(=O)c3ccco3)=C(O)C(=O)N2c2cc(C)on2)cc(Br)c1O", "note": "(configuration not stated)", "values": [
      {"measurement": "IC50", "setting": "[8]", "value": "> 47.1 µM (inactive)"},
      {"measurement": "EC50", "setting": "[9]", "value": "> 53 µM (inactive)"},
      {"measurement": "Ki", "setting": "[10]", "value": "47.7 µM (inactive)"}
    ]},
    {"compound": "COc1ccc(OC)c(C2C(C(=O)c3ccco3)=C(O)C(=O)N2CCCN2CCOCC2)c1", "note": "(configuration not stated)", "values": [
      {"measurement": "Ki", "setting": "[10]", "value": "26.4 µM (inactive)"}
    ]}
  ]
}
